From patent US8470548B2, “Diagnosis of depression” (Intra-Cellular Therapies, Inc., priority 2006, dated 2013)
Where two headings read alike, the source gives them in different places.

Assays:
5-HT1A receptor = biological target: T1, 5-HT1A receptor (Mus musculus, UniProt Q64264); assay: [35S]GTPγS binding in response to 5-HT1A receptor stimulation; assay type: biochemical, mice; conditions: 50 μM agonist
T1 construct: Fresh cryostat sections (12 μm) from wild-type, p11 KO and p11 transgenic mice; from tissue; host or cells: mouse brain cryostat sections
T1 sequence (Q64264 1-421): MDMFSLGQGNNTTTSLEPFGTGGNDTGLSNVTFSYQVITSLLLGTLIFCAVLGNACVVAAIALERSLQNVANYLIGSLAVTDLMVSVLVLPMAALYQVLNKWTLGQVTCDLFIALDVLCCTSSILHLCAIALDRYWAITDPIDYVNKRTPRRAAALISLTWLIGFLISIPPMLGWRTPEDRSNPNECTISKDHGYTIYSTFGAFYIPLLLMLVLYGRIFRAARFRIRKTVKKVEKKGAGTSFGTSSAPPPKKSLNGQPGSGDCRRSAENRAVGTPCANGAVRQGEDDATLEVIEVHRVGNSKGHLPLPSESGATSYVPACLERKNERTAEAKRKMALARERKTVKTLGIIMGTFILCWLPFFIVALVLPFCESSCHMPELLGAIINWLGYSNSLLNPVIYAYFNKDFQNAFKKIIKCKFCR
Description: (§1) Fresh cryostat sections (12 μm) from wild-type, p11 KO and p11 transgenic mice are preincubated for 30 min in Tris-HCl 50 mM (pH 7.4) supplemented with 100 mM NaCl, […] 3 mM MgCl2, 0.2 mM EGTA, 2 mM GDP and 1 U/ml adenosine deaminase to remove endogenous adenosine. The sections are thereafter incubated for two hours at 25° C. in the same solution containing 40 pM [^35S]GTP S, with (stimulation condition) or without (basal condition) 50 μM of the 5-HT1A receptor agonist, 8-OH-DPAT, or the 5-HT1B receptor agonist, anpirtoline. Non-specific labeling (background) is determined on autoradiographs from adjacent sections incubated with 10 μM of unlabeled GTP S. Sections are rinsed twice (3 min each) in 50 mM Tris-HCl buffer, once (30 sec) in distilled water to remove the buffer salts, and air-dried. The autoradiographs are obtained by 2-4 days exposure on Biomax MR film. Optical density measurements are obtained in several brain regions with the NIH Image 1.63 image analysis system.

p11 mRNA = conditions: mice, 14 day treatment, once daily i.p., killed 1 hour after last injection
Description: For some experiments, brains from p11 KO mice and their wild-type counterparts are used. […] Animals are killed 1 hour after the last injection.
In situ hybridization probes are made by PCR amplification of nucleotides 1159-1420 of the coding sequence of the rat 5-HT1B receptor gene, nucleotides 1-293 of the coding sequence of the mouse or human p11 genes and nucleotides 1-287 of the coding sequence of the rat p11 gene, respectively. The different PCR fragments are subcloned into the pCRII-TOPO vector. With the exception of the studies on human tissue, 12-μm-thick cryostat sections are made for all studies. Sections are hybridized with [□^−35S]UTP-labeled riboprobe repared by in vitro transcription from cDNA corresponding to the rat 5-HT1B receptor gene or mouse, rat or human p11 gene as previously described (S5). After hybridization, the sections are exposed to Biomax MR film for 7 to 24 days and analyzed using the NIH Image 1.63 software. Unless indicated, analyses are made in the prelimbic/anterior cingulate cortex. Some sections are dipped into Ilford K5 emulsion for cellular analysis. After 8 weeks, the sections are developed, Nissl-stained and mounted.

AMPA receptors = assay: Electrophysiology, fEPSP/PS in nucleus accumbens slices, CNQX; design: species or system mice; conditions: 15 min after CNQX
Description: (§2) Male p11 KO and wild-type mice (4-7 weeks old) are decapitated under fluorothane anesthesia. Their brains are rapidly removed and coronal brain slices (400 μm thick), containing the nucleus accumbens, are prepared with a microslicer. Slices are incubated, for at least 1 h, at 32° C. in oxygenated (95% O2+5% CO2) artificial cerebrospinal fluid (aCSF) containing (in mM): 126 NaCl, 2.5 KCl, 1.2 NaH2PO4, 1.3 MgCl2, 2.4 CaCl2, 10 glucose and 26 NaHCO3, pH 7.4. Slices are transferred to a recording chamber mounted on an upright microscope and are continuously perfused with oxygenated aCSF at 28° C. Extracellular field potentials are recorded using a glass micropipette filled with aCSF positioned on the slice surface in the nucleus accumbens. Signals are amplified 500 times via an Axopatch 200B amplifier acquired at 10 kHz, filtered at 2 kHz and recorded on a Computer using acquisition and pClamp9 data analysis software. Synaptic responses are evoked with a concentric bipolar stimulating electrode placed near the recording electrode on the surface of the slice. […] Single stimuli (0.1 ms duration) are applied every 15 sec at an intensity yielding 50-70% maximal response as assessed by a stimulus/response curve established for each slice examined by measuring the amplitude of the field potential evoked by increasing stimulus intensities. […] Numerical values are expressed as means […]SEM. […]

5-HT1B receptor [1] = biological target: T2, 5-HT1B receptor (Mus musculus, UniProt P28334); assay: Quantitative receptor autoradiography, [125I]cyanopindolol binding and serotonin displacement; design: Cryostat sections (12 μm thick) are made from p11 KO and wild-type mice; from tissue; host or cells: mouse brain cryostat sections (globus pallidus, substantia nigra); wild-type, p11 KO and p11 transgenic mice; species or system mice
T2 sequence (P28334 whole entry): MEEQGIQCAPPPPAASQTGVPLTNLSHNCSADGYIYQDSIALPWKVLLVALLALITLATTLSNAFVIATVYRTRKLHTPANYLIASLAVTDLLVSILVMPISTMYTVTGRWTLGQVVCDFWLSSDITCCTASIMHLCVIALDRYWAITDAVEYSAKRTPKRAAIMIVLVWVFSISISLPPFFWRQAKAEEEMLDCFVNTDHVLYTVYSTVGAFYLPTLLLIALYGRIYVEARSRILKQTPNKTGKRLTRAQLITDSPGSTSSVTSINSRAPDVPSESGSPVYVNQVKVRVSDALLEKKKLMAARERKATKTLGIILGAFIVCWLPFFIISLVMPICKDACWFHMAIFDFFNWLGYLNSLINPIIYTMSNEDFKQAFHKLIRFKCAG
Description: Cryostat sections (12 μm thick) are made from p11 KO and wild-type mice. 5-HT1B receptors are detected by incubating the sections in 170 mM Tris/150 mM NaCl pH 7.4 (25° C.) containing the antagonist [^125I]cyanopindolol (0.3, 1, 3, 10, 30, 100 pM; 2200 Ci/mmol), 100 nM 8-OH-DPAT as a 5-HT1A blocker, and 30 μM isoproterenol, as β-adrenergic receptor blocker, for two hours (S9). Non-specific binding is determined by measurements in the presence of 100 μM serotonin. In displacement experiments, increasing concentrations of serotonin (0, 0.3, 1, 3, 10, 30, 100, 300, 1000, 10000 nM) are incubated with 10 pM [^125I]cyanopindolol as described above. […] At the end of all autoradiographic experiments, sections are rinsed 2×5 min in their corresponding cold binding buffers, dipped in distilled water at 4° C. and dried under cold air. The sections are apposed to Biomax MR films for 3-5 days ([^125I]cyanopindolol) or 4-10 weeks ([^3H]GR125743, [^3H]8-OHDPAT, ^3H]SCH23390, [^3H]raclopride) together with ^[125I] or [^3H] microscales. Optical density measurements are obtained in several brain regions with the NIH Image 1.63 image analysis system. Specific binding is calculated by digital subtraction of nonspecific labeling from total binding. Standard curves generated from [^3H] or [^125I] microscales are used to convert optical densities into femtomoles per milligram of protein. Data obtained from saturation and displacement experiments are analyzed using non-linear regression equations.

thigmotaxis = assay: Open-field analysis (thigmotaxis); assay type: in vivo; conditions: wild-type mice treated long-term with imipramine; anpirtoline 5 mg/kg i.p., 15 min postinjection
Description: Horizontal activities are measured for 30 minutes (results are analyzed every 5 min period) during daytime in a fully computerized, multicage, red and infrared-sensitive motion detection system. The peripheral activity values are divided […] by the total horizontal activity values to determine thigmotaxis. In experiments with anpirtoline (5 mg/kg, i.p.) animals are tested 15 min postinjection. Some anpirtolinetreated mice had received daily injections with imipramine (10 mg/kg, i.p.) for 4 weeks until the day before the experiment.

immobility = assay: Tail suspension test; assay type: in vivo; conditions: p11 KO mice compared with wild-type mice after acute treatment, 15 minutes postinjection
Description: The tail suspension test, a model of antidepressant-like activity, is carried out as described (S11) and is a modified version of that validated for C57B16 (S12) and NMRI mice (S13). Mice are individually suspended by the tail to a horizontal bar (distance from floor is 35 cm) using adhesive tape (distance from tip of tail is 2 cm). […] A 6-min test session is videotaped and scored by an observer who is unaware of the genotype. The parameter recorded is the number of seconds spent immobile. In experiments with anpirtoline (5 mg/kg) and imipramine (10 mg/kg), animals are tested 15 minutes postinjection.

[2] = test system: phospho-Thr202/Tyr204-ERK1/2; assay: Western blotting of phosphorylated ERK1/2 in primary cortical cultures; assay type: cell-based; conditions: primary cortical cultures from p11 KO mice, 10 μM, 15 minutes
Description: Cortices are removed from E18 mice generated from WT×WT or p11KO×p11KO breedings, trypsinized (0.25%), dissociated by trituration and plated onto poly-L-lysine (1 mg/ml) coated six-well plates. The cultures (500,000 cells/ml) are grown in medium containing DMEM with 5% fetal bovine serum, 4 mM L-glutamine, B-27 nutrient supplement, penicillin (5 U/ml), and streptomycin (5 μg/ml). After two weeks, the cultures are treated with vehicle, serotonin (10 μM) or anpirtoline (10 μM) for 15 minutes. At the end of the treatment, the drug-containing medium is removed, the wells rinsed in ice-cold PBS, the neurons removed by a cell scraper and frozen in liquid nitrogen. Frozen cell samples are sonicated in 1% SDS and boiled for 10 min. Small aliquots of the homogenate are retained for protein determination by the bicinchoninic acid protein assay method. Equal amounts of protein are processed by using 10% acrylamide gels, as described (S10). Immunoblotting is carried out with a phosphorylation-state-specific antibody against phospho-Thr202/Tyr204-ERK1/2 or an antibody that is not phosphorylation-state-specific against total ERK1/2. Antibody binding is detected by enhanced chemiluminescence and quantified by densitometry, using National Institutes of Health IMAGE 1.63 software. The level of the phosphorylated form of ERK1/2 is normalized to its total level. All data are presented as normalized levels.

phospho-Ser9-synapsin I = assay: Western blotting of phosphorylated synapsin I in brain slices; assay type: cell-based; conditions: striatal slices from p11 KO mice, 50 μM, 2 min
Description: Slices (300 μm) from the striatum are prepared from wild-type and p11 KO mice as described (S10). The slices are preincubated in Krebs buffer (118 mM NaCl/4.7 mM KCl/1.5 mM […]/1.2 mM KH2PO4/25 mM NaHCO3/11.7 mM glucose/1.3 mM CaCl2) at 30° C. under constant oxygenation (95% O2/5% CO2) for 60 min, with a change of buffer after […]. Slices are treated with vehicle or anpirtoline (50 μM) for 2 min. After drug treatment, the buffer is removed, the slices are rapidly frozen on dry ice, sonicated in 1% SDS and boiled for 10 min. Small aliquots of the homogenate are retained for protein determination by the bicinchoninic acid protein assay method. Equal amounts of protein are processed by using 10% acrylamide gels. Immunoblotting is carried out with a phosphorylation-state-specific rabbit polyclonal antibody against phospho-Ser9-synapsin I, a site that is phosphorylated by PKA and CamKII, or a rabbit polyclonal synapsin antibody that is not phosphorylation-state-specific. Antibody binding is detected by enhanced chemiluminescence and quantified by densitometry, using National Institutes of Health IMAGE 1.63 software. The level of the phosphorylated form of synapsin is normalized to its total level. All data are presented as normalized levels.

5-HT1B receptor [3] = biological target: T2, 5-HT1B receptor; assay: [35S]GTPγS binding in response to 5-HT1B receptor stimulation; assay type: biochemical; design: Cryostat sections (12 μm thick) are made from p11 KO and wild-type mice; from tissue; host or cells: mouse brain cryostat sections (globus pallidus, substantia nigra); wild-type, p11 KO and p11 transgenic mice; conditions: p11 KO mice, 50 μM agonist
Description: as §1

p11 = p11 expression in PBMC of monkeys receiving fluoxetine; assay type: in vivo
5-HT1B receptor [4] = biological target: T2, 5-HT1B receptor; assay: Electrophysiology, fEPSP/PS in nucleus accumbens slices, serotonin; conditions: slices from WT mice; serotonin 50 μM in the presence of 10 μM fluoxetine
Description: as §2

5-HT1B receptor [5] = biological target: T3, 5-HT1B receptor (Homo sapiens, UniProt P28222); assay: cAMP measurements in COS 7 cells; assay type: cell-based
T3 construct: V5 (C); expressed in transfected cells; host or cells: COS 7
T3 sequence (P28222 whole entry): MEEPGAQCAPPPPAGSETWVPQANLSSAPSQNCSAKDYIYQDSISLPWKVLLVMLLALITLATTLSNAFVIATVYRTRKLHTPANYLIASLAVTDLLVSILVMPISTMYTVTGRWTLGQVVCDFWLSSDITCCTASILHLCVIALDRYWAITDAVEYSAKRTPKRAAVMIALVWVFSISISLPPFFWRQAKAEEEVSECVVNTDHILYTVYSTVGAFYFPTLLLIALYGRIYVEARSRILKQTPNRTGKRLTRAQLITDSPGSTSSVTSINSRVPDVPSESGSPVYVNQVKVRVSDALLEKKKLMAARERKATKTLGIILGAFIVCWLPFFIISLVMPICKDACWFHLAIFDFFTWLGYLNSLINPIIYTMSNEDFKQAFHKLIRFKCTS
Description: COS 7 cells grown in DMEM medium are transfected with 5-HT1B receptors and/or p11. Thirty six hours later the cells are pretreated with theophylline (5 mM) and pargyline (10 μM) for 15 min. Vehicle or forskolin (10 μM) with or without serotonin (10 μM), is then added for another 15 minutes. At the end of the treatment, the drug-containing medium is removed, the wells rinsed in PBS and the cells harvested. cAMP formation is quantitated by a direct cAMP enzyme immunoassay kit according to the manufacturers instructions.

CCCN(CCC)C1CCc2cccc(O)c2C1 (racemic) [8-OH-DPAT, (+/−)-8-hydroxy-2-(di-n-propylamino)tetralin] was tested, and the “[35S]GTP-S binding” value (5-HT1A receptor; p11 KO mice) was 5.0±2.0 optical density units and the “[35S]GTP-S binding” value (5-HT1A receptor; wild-type mice) was 6.0±2.1 optical density units.

With N[C@@H]1C[C@H]1c1ccccc1 (racemic) [tranylcypromine] the “p11 mRNA in the forebrain” value (p11 mRNA) was “upregulation of p11 mRNA”.

For N#Cc1cc2c(cc1[N+](=O)[O-])=NC(=O)C(=O)N=2 [CNQX, 6-cyano-7-nitroquinoxaline-2,3-dione], the “f EPSP/population spike (PS) reduction compared with baseline” value (AMPA receptors; p11 KO mice) was 81% and the “f EPSP/population spike (PS) reduction compared with baseline” value (AMPA receptors; wild-type mice) was 77%.

CC(C)(C)NCC(O)COc1cccc2[nH]c(C#N)c([125I])c12 (centres unmarked) [[^125I]iodocyanopindolol] was tested, and the “binding in substantia nigra pars reticulata” value (5-HT1B receptor [1]; p11 KO mice) was 77.3±5.8 fmol/mg protein and the “binding in substantia nigra pars reticulata” value (5-HT1B receptor [1]; wild-type mice) was 98.8±6.2 fmol/mg protein.

Clc1cccc(SC2CCNCC2)n1 [anpirtoline] was tested, and the thigmotaxis (thigmotaxis) was “significant reduction in thigmotaxis”, the “immobility in the tail suspension test” value (immobility) was “increased immobility” and the “down-regulation of phospho-Thr202/Tyr204-ERK1/2 levels” value [2] was “loss of ability”. For the same compound, the “decrease of phospho-Ser9-synapsin I” value (phospho-Ser9-synapsin I) was “loss of ability” and the “ability to increase [35S]GTP-S binding in globus pallidus” value (5-HT1B receptor [3]) was “reduced ability”.

CNCCC(Oc1ccc(C(F)(F)F)cc1)c1ccccc1 (centres unmarked) [fluoxetine] was tested, and the “increase in p11 expression in peripheral blood mononuclear cells (PBMC)” value (p11) was “more than twofold”.

With O=C(CCCN1CCC(O)(c2ccc(Cl)cc2)CC1)c1ccc(F)cc1 [haloperidol] the “p11 mRNA in the forebrain” value (p11 mRNA) was “not”.

With CN(C)CCCN1c2ccccc2CCc2ccccc21 [imipramine] the “p11 mRNA in the forebrain” value (p11 mRNA) was “upregulation of p11 mRNA” and the “immobility in the tail suspension test” value (immobility) was “increased immobility”.

With Cc1nc2n(c(=O)c1CCN1CCC(c3noc4cc(F)ccc34)CC1)CCCC2 [risperidone] the “p11 mRNA in the forebrain” value (p11 mRNA) was “not”.

NCCc1c[nH]c2ccc(O)cc12 [serotonin, 5-hydroxy-tryptamine] was tested, and the “amplitude of the fEPSP/PS” value (5-HT1B receptor [4]) was “depresses the amplitude”, the “down-regulation of phospho-Thr202/Tyr204-ERK1/2 levels” value [2] was “loss of ability” and the EC50 (5-HT1B receptor [1]) was 0.052 µM. The EC50 (5-HT1B receptor [1]; median effective concentration (EC50) to displace bound [125I]iodocyanopindolol, wild-type mice, brain sections) was 0.057 µM, the “ability to counteract forskolin-induced cAMP formation” value (5-HT1B receptor [5]; COS-7 cells transfected with the 5-HT1B receptor, in the presence of cotransfected p11, serotonin (10 µM)) was “increased” and the “cAMP formation in untransfected COS 7 cells” value (5-HT1B receptor [5]; control experiments, untransfected cells) was “does not alter cAMP formation”.
